Measurements published in patent US12077503B2, “Substituted cyclic amides and their use as herbicides” (FMC CORPORATION, priority 2015, dated 2024).

How the values were obtained:
Format in all cases: in vivo
Kochia (Kochia scoparia) [1] = test: Test A preemergence; details: for Kochia plant response rating (0 to 100 scale, 0 is no effect, 100 is complete control): visual injury approx. 10 d
Outline: (§1)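 Ratings of 0 (no effect) to 100 (complete control) come from visual comparison with untreated controls roughly 10 d after treatment. Test chemicals, formulated in a non-phytotoxic solvent mixture with surfactant, were applied either as a preemergence directed soil spray on seeded soil or postemergence to one- to two-leaf plants 2 to 10 cm tall.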

[2] = tested on: barnyardgrass (Echinochloa crus-galli); test: Test A preemergence; details: for Barnyardgrass plant response rating (0 to 100 scale, 0 is no effect, 100 is complete control): visual injury approx. 10 d
Outline: as §1

[3] = tested on: giant foxtail (Setaria faberii); test: Test A preemergence; details: for Foxtail, Giant plant response rating (0 to 100 scale, 0 is no effect, 100 is complete control): visual injury approx. 10 d
Outline: as §1

[4] = tested on: pigweed (Amaranthus retroflexus); test: Test A preemergence; details: for Pigweed plant response rating (0 to 100 scale, 0 is no effect, 100 is complete control): visual injury approx. 10 d
[5] = tested on: ragweed (common ragweed, Ambrosia elatior); test: Test A preemergence; details: for Ragweed plant response rating (0 to 100 scale, 0 is no effect, 100 is complete control): visual injury approx. 10 d
Outline: as §1

[6] = tested on: ryegrass, Italian (Italian ryegrass, Lolium multiflorum); test: Test A preemergence; details: for Ryegrass, Italian plant response rating (0 to 100 scale, 0 is no effect, 100 is complete control): visual injury approx. 10 d
Outline: as §1

[7] = tested on: Galium (catchweed bedstraw, Galium aparine); test: Test A postemergence; details: for Galium plant response rating: visual injury rating on 0 to 100 scale (0 no effect, 100 complete control)
Outline: as §1

Kochia (Kochia scoparia) [8] = test: Test A postemergence; details: for Kochia plant response rating: visual injury rating on 0 to 100 scale (0 no effect, 100 complete control)
Outline: as §1

[9] = tested on: barnyardgrass (Echinochloa crus-galli); test: Test A postemergence; details: postemergence; for Barnyardgrass plant response rating: visual injury rating on 0 to 100 scale (0 no effect, 100 complete control)
Outline: as §1

[10] = tested on: blackgrass (Alopecurus myosuroides); test: Test A postemergence; details: postemergence; for Blackgrass plant response rating: visual injury rating on 0 to 100 scale (0 no effect, 100 complete control)
Outline: as §1

corn (Zea mays) = test: Test A postemergence; details: postemergence; for Corn plant response rating: visual injury rating on 0 to 100 scale (0 no effect, 100 complete control)
Outline: as §1

[11] = tested on: giant foxtail (Setaria faberii); test: Test A postemergence; details: for Foxtail, Giant plant response rating: visual injury rating on 0 to 100 scale (0 no effect, 100 complete control)
Outline: as §1

[12] = tested on: pigweed (Amaranthus retroflexus); test: Test A postemergence; details: for Pigweed plant response rating: visual injury rating on 0 to 100 scale (0 no effect, 100 complete control)
Outline: as §1

[13] = tested on: ragweed (common ragweed, Ambrosia elatior); test: Test A postemergence; details: for Ragweed plant response rating: visual injury rating on 0 to 100 scale (0 no effect, 100 complete control)
Outline: as §1

[14] = tested on: ryegrass, Italian (Italian ryegrass, Lolium multiflorum); test: Test A postemergence; details: for Ryegrass, Italian plant response rating: visual injury rating on 0 to 100 scale (0 no effect, 100 complete control)
Outline: as §1

[15] = tested on: wheat (Triticum aestivum); test: Test A postemergence; details: for Wheat plant response rating: visual injury rating on 0 to 100 scale (0 no effect, 100 complete control)
Outline: as §1

[16] = tested on: barnyardgrass (Echinochloa crus-galli); test: Test B flooded paddy test; details: Flood, 0 to 100 scale where 0 is no effect and 100 is complete control, 13 to 15 d
Outline: (§2)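 Rating scale 0–100 (visual, vs untreated controls) after a 13–15 d greenhouse period; application to the flood layer, 3 cm above soil and maintained; plants at 2-leaf stage when treated.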

[17] = tested on: ducksalad (Heteranthera limosa); test: Test B flooded paddy test; details: Flood, 0 to 100 scale where 0 is no effect and 100 is complete control, 13 to 15 d
Outline: as §2

rice (Oryra sativa) = test: Test B flooded paddy test; details: Flood, 0 to 100 scale where 0 is no effect and 100 is complete control, 13 to 15 d
Outline: as §2

[18] = tested on: sedge, umbrella (small-flower umbrella sedge, Cyperus difformis); test: Test B flooded paddy test; details: Flood, 0 to 100 scale where 0 is no effect and 100 is complete control, 13 to 15 d
Outline: as §2

[19] = 125 g ai/ha, preemergence, 0 to 100 scale (0 no effect, 100 complete control)
[20] = 125 g ai/ha, postemergence, approx. 10 d
[21] = 500 g ai/ha, postemergence, 0 to 100 scale, 0 no effect, 100 complete control
[22] = 500 g ai/ha, 0 to 100 scale, 0 no effect, 100 complete control
[23] = 125 g ai/ha, Preemergence, visual injury after approximately 10 d, 0 to 100 scale where 0 is no effect and 100 is complete control
[24] = 500 g ai/ha, preemergence, 0 to 100 scale, 0 = no effect, 100 = complete control
[25] = 125 g ai/ha, preemergence, visual rating after approx. 10 d, 0 to 100 scale where 0 is no effect and 100 is complete control
[26] = 125 g ai/ha, postemergence, visual injury after approximately 10 d, 0 to 100 scale (0 no effect, 100 complete control)
[27] = 500 g ai/ha, postemergence, visual injury, 0 to 100 scale (0 no effect, 100 complete control), approx. 10 d
[28] = 125 g ai/ha, visual rating after approx. 10 d, 0 to 100 scale (0 no effect, 100 complete control)
[29] = 500 g ai/ha, visual injury, 0 to 100 scale (0 no effect, 100 complete control), approx. 10 d
[30] = Postemergence, 500 g ai/ha, 0 to 100 scale where 0 is no effect and 100 is complete control

Cc1cc(NC(=O)C2C(=O)NCC2c2cccc(OC(F)F)c2)ccc1F (stereo not drawn) [Compound 424]
30: Plant response rating, Barnyardgrass [2, 19] | Plant response rating, Ducksalad ([17]; 500 g ai/ha)
0: Plant response rating, Kochia (Kochia (Kochia scoparia) [1]; [19]) | Kochia plant response rating (0 to 100 scale, 0 is no effect, 100 is complete control) (Kochia (Kochia scoparia) [1]; Preemergence, 500 g ai/ha) | Plant response rating, Pigweed [4, 19] | Pigweed plant response rating (0 to 100 scale, 0 is no effect, 100 is complete control) ([4]; Preemergence, 500 g ai/ha) | Plant response rating, Ragweed [5, 19] | Ragweed plant response rating (0 to 100 scale, 0 is no effect, 100 is complete control) ([5]; Preemergence, 500 g ai/ha) | Plant response rating, Ryegrass, Italian [6, 19] | Ryegrass, Italian plant response rating (0 to 100 scale, 0 is no effect, 100 is complete control) ([6]; Preemergence, 500 g ai/ha) | Galium plant response rating [7, 20] | Plant response rating, Galium [7, 21] | Kochia plant response rating (Kochia (Kochia scoparia) [8]; [20]) | Plant response rating, Kochia (Kochia (Kochia scoparia) [8]; [21]) | Blackgrass plant response rating ([10]; 125 g ai/ha, approx. 10 d) | Plant response rating, Blackgrass [10, 22] | Corn plant response rating (corn (Zea mays); 125 g ai/ha, approx. 10 d) | Plant response rating, Corn (corn (Zea mays); [22]) | Pigweed plant response rating [12, 20] | Plant response rating, Pigweed [12, 21] | Ragweed plant response rating [13, 20] | Plant response rating, Ragweed [13, 21] | Ryegrass, Italian plant response rating [14, 20] | Plant response rating, Ryegrass, Italian [14, 21] | Wheat plant response rating [15, 20] | Plant response rating, Wheat [15, 21] | Plant response rating, Barnyardgrass ([16]; 500 g ai/ha) | Plant response rating, Rice (rice (Oryra sativa); 500 g ai/ha) | Plant response rating, Sedge, Umbrella ([18]; 500 g ai/ha)
90: Barnyardgrass plant response rating (0 to 100 scale, 0 is no effect, 100 is complete control) ([2]; Preemergence, 500 g ai/ha) | Foxtail, Giant plant response rating (0 to 100 scale, 0 is no effect, 100 is complete control) ([3]; Preemergence, 500 g ai/ha)
40: Foxtail, Giant plant response rating [11, 20]
50: Barnyardgrass plant response rating ([9]; 125 g ai/ha, approx. 10 d)
70: Plant response rating, Foxtail, Giant [3, 19] | Plant response rating, Barnyardgrass [9, 22] | Plant response rating, Foxtail, Giant [11, 21]

O=C1NCC(c2cccc(Br)c2)C1C(=O)Nc1cccc(F)c1F (racemic) [Compound 688]
60: Plant response rating, Kochia (Kochia (Kochia scoparia) [8]; [27]) | Plant response rating, Blackgrass [10, 29] | Plant response rating, Ryegrass, Italian [14, 27]
20: Plant response rating, Ragweed [5, 25] | Plant response rating, Ryegrass, Italian [6, 24] | Plant response rating, Wheat [15, 26]
70: Plant response rating, Corn (corn (Zea mays); [29]) | Plant response rating, Wheat [15, 27]
50: Plant response rating, Kochia (Kochia (Kochia scoparia) [1]; [24]) | Plant response rating, Galium [7, 27] | Plant response rating, Blackgrass [10, 28] | Plant response rating, Pigweed [12, 27] | Plant response rating, Ragweed [13, 27]
40: Plant response rating, Pigweed [4, 24] | Plant response rating, Ragweed [5, 24] | Plant response rating, Galium [7, 26] | Plant response rating, Kochia (Kochia (Kochia scoparia) [8]; [26]) | Plant response rating, Corn (corn (Zea mays); 125 g ai/ha, visual injury after approximately 10 d, 0 to 100 scale (0 no effect, 100 complete control)) | Plant response rating, Ryegrass, Italian [14, 26]
30: Plant response rating, Kochia (Kochia (Kochia scoparia) [1]; [23]) | Plant response rating, Pigweed [4, 25] | Plant response rating, Pigweed [12, 26] | Plant response rating, Ragweed [13, 26]
90: Plant response rating, Barnyardgrass [2, 23] | Plant response rating, Barnyardgrass [2, 24] | Plant response rating, Foxtail, Giant [3, 23] | Plant response rating, Foxtail, Giant [3, 24] | Plant response rating, Barnyardgrass [9, 28] | Plant response rating, Barnyardgrass [9, 29] | Plant response rating, Foxtail, Giant [11, 26] | Plant response rating, Foxtail, Giant [11, 27]
0: Plant response rating, Ryegrass, Italian [6, 25] | Plant response rating, Rice (rice (Oryra sativa); 250 g ai/ha) | Plant response rating, Sedge, Umbrella ([18]; 250 g ai/ha)
100: Plant response rating, Ducksalad ([17]; 250 g ai/ha)
35: Plant response rating, Barnyardgrass ([16]; 250 g ai/ha)

CC(C)=CCN1CC(c2cccc(C(F)(F)F)c2)C(C(=O)Nc2cccc(F)c2F)C1=O (stereo not drawn) [Compound 477]
90: Barnyardgrass plant response rating (0 to 100 scale, 0 is no effect, 100 is complete control) ([2]; Preemergence, 500 g ai/ha) | Plant response rating, Foxtail, Giant [3, 19] | Foxtail, Giant plant response rating (0 to 100 scale, 0 is no effect, 100 is complete control) ([3]; Preemergence, 500 g ai/ha)
30: Plant response rating, Blackgrass [10, 22]
70: Plant response rating, Barnyardgrass [9, 22] | Plant response rating, Foxtail, Giant [11, 30]
20: Plant response rating, Barnyardgrass [2, 19]
0: Plant response rating, Kochia (Kochia (Kochia scoparia) [1]; [19]) | Kochia plant response rating (0 to 100 scale, 0 is no effect, 100 is complete control) (Kochia (Kochia scoparia) [1]; Preemergence, 500 g ai/ha) | Plant response rating, Pigweed [4, 23] | Pigweed plant response rating (0 to 100 scale, 0 is no effect, 100 is complete control) ([4]; Preemergence, 500 g ai/ha) | Plant response rating, Ragweed [5, 23] | Ragweed plant response rating (0 to 100 scale, 0 is no effect, 100 is complete control) ([5]; Preemergence, 500 g ai/ha) | Plant response rating, Ryegrass, Italian [6, 23] | Ryegrass, Italian plant response rating (0 to 100 scale, 0 is no effect, 100 is complete control) ([6]; Preemergence, 500 g ai/ha) | Galium plant response rating [7, 20] | Plant response rating, Galium [7, 30] | Kochia plant response rating (Kochia (Kochia scoparia) [8]; [20]) | Plant response rating, Kochia (Kochia (Kochia scoparia) [8]; [30]) | Blackgrass plant response rating ([10]; 125 g ai/ha, approx. 10 d) | Corn plant response rating (corn (Zea mays); 125 g ai/ha, approx. 10 d) | Pigweed plant response rating [12, 20] | Plant response rating, Pigweed [12, 30] | Ragweed plant response rating [13, 20] | Plant response rating, Ragweed [13, 30] | Ryegrass, Italian plant response rating [14, 20] | Plant response rating, Ryegrass, Italian [14, 30] | Wheat plant response rating [15, 20] | Plant response rating, Barnyardgrass ([16]; 250 g ai/ha) | Plant response rating, Ducksalad ([17]; 250 g ai/ha) | Plant response rating, Rice (rice (Oryra sativa); 250 g ai/ha) | Plant response rating, Sedge, Umbrella ([18]; 250 g ai/ha)
40: Barnyardgrass plant response rating ([9]; 125 g ai/ha, approx. 10 d) | Plant response rating, Corn (corn (Zea mays); [22]) | Foxtail, Giant plant response rating [11, 20] | Plant response rating, Wheat [15, 30]
